Source: US10034922B2, “Peptide having angiogenesis inhibitory activity and composition containing same” (GemVax & KAEL Co., Ltd., priority 2013, dated 2018)

Tests used:
HSP70 = HSP70 protein level by immunoblotting, serum-free media, 2 h treatment; type: cell-based, human; settings: MCF7 cells, PEP1 20 μM, 17-AAG 1 μM, KNK437 1 μM
Protocol: (§1) Jurkat and MCF7 cells ([…]) were seeded and incubated for 12 hours. After treating the starvation for 2 hours by adding the OPTI-MEM media, same as the shown figure, the cells were treated by the PEP1 at the different concentrations, by the scrambled peptides, […] (1 μM) or KNK437 (1 μM). After the 2-hour incubation, the cells were collected and lysated by using cell lysis buffer (Thermo Scientific, IL, USA). By using Bradford Protein Assay (Bio-Rad, USA), the protein concentration was quantified, and the samples were treated by SDS-PAGE and immunoblotting with α-HSP70 (sc-32239 and sc-66048, Santa Cruz, Calif., USA), α-HSP90 (ab1429, abcam, USA), α-GRP78 (sc-13968), α-HIF-1a (sc-10790) or α-GAPDH (sc-25778) antibodies. The immune reactive band was visualized by the intensive chemiluminescence kit (iNtRoN Biotechnology, INC, Korea), and analyzed by ImageQuant™ LAS-4000 (GE Healthcare Life Science, NJ, US).

HSP90 = HSP90 protein level by immunoblotting, serum-free media, 2 h treatment; type: cell-based, human; settings: 17-AAG 1 μM, KNK437 1 μM
Protocol: as §1

SMILES	amount of HSP70, comparison with HSP inhibitors (HSP70)	amount of HSP90, comparison with HSP inhibitors (HSP90; Jurkat cells, PEP1 5 μM)	amount of HSP90, comparison with HSP inhibitors (HSP90; MCF7 cells, PEP1 20 μM)
O=CN1CC/C(=C\c2ccc3c(c2)OCO3)C1=O [KNK437]	decrease	decreased	decrease
C=CCNC1=C2C[C@@H](C)C[C@H](OC)[C@H](O)[C@@H](C)/C=C(\C)[C@H](OC(N)=O)[C@@H](OC)/C=C\C=C(/C)C(=O)NC(=CC1=O)C2=O [17-AAG]	very little effect	decreased	very little effect
